Measurements: US11897867B2, “6-phenyl-4,5-dihydropyridazin-3(2H)-one derivatives as PDE3A and PDE3B inhibitors for treating cancer” (Bayer Aktiengesellschaft, priority 2017, dated 2024)

Tests used:
[1] = system: HeLa cells (cervical cancer); experiment: Cell proliferation measurement (Cell Titer Glo), HeLa; format: cell-based; conditions: Homo sapiens, 72 h treatment, read-out: Anti-proliferation IC50 HeLa (Cervical cancer)
Procedure: (§1) The antiproliferative activity of the compounds of the general formula (I) was examined in vitro in human cancer cells. For this purpose, 1000 cells (or 500 HeLa cells) were plated in 384-well plates with appropriate growth medium and incubated at 37° C. overnight. After 24 h, the cells on the test plate were treated with the compounds of the general formula (I) as and incubated at 37° C. for 72 h. The compounds were added to the cells by means of an HP D300 digital dispenser in a 10 (or more)-step dilution series. As control, the cells were treated with vehicle (DMSO at 0.3% final concentration). After 72 h, the cells were treated with 20 μl/well of 50% CTG solution in PBS (Promega Cell Titer Glo (catalogue #G755B and G756B)) and incubated at room temperature for 10 min, and luminescence was measured by means of a VICTOR V (Perkin Elmer), in order to determine cell viability at the end of treatment. The percentage effect on cell growth and the IC50 derived therefrom were determined for each test substance using the values from untreated wells (=percent viability). The IC50 values were calculated using a 4-parameter fit.

SK-MEL-3 (melanoma) = experiment: Cell proliferation measurement (Cell Titer Glo), SK-MEL-3; format: cell-based; conditions: Homo sapiens, SK-MEL3, SK-MEL-3 cells, 72 h treatment, read-out: Anti-proliferation IC50 SK-MEL-3 (melanoma)
Procedure: as §1

human full length PDE3A = target: T1, human full length PDE3A (Homo sapiens, UniProt Q14432); experiment: PDE3A enzyme inhibition (3H-cAMP Scintillation Proximity Assay); format: biochemical; conditions: PDE3A cell extract from Sf9 cells, 60 min room temperature; read-out: Target IC50 PDE3A IC50
T1 construct: Sf9 cells overexpressing human full length PDE3A; purchased SB Drug Discovery, UK; host or cells: Sf9 cells (cell extract)
Procedure: (§2) The commercially available 3H-cAMP Scintillation Proximity Assay (SPA, Perkin Elmer) system was used for enzyme inhibition studies. For the determination of the in vitro effect of test substances on the PDE3A reactions 2 μl of the respective test compound solution in DMSO (serial dilutions) were is placed in wells of microtiter plates (Isoplate-96/200W; Perkin Elmer). 50 μl of a dilution of PDE3A cell extract from Sf9 cells overexpressing human full length PDE3A (SB Drug Discovery, UK) in buffer A (50 mM Tris/HCl pH 7.5, 8.3 mM MgCl2, 1.7 mM EDTA, 0.2% BSA) was added. The dilution of the PDE3A cell extract was chosen such that the reaction kinetics was linear and less than 70% of the substrate was consumed (typical dilution 1:5000). The reaction was started by addition of 50 μl (0.025 μCi) of 1:2000 in buffer A w/o BSA diluted substrate [8-3H] adenosine 3′,5′-cyclic phosphate (1 μCi/μl; Perkin Elmer). After incubation at room temperature for 60 min, the reaction was stopped by addition of 25 μl of a suspension containing 18 mg/ml yttrium scintillation proximity beads (Perkin Elmer) in water. The microtiter plates were sealed and measured in a Microbeta scintillation counter (PerkinElmer Wallac). IC50 values were determined from sigmoidal curves by plotting percentage PDE3A activity vs log compound concentration.

human full length PDE3B = target: T2, human full length PDE3B (Homo sapiens, UniProt Q13370); experiment: PDE3B enzyme inhibition (3H-cAMP Scintillation Proximity Assay); format: biochemical; conditions: PDE3B cell extract from Sf9 cells, 60 min room temperature; read-out: Target IC50 PDE3B IC50
T2 construct: Sf9 cells overexpressing human full length PDE3B; purchased SB Drug Discovery, UK; host or cells: Sf9 cells (cell extract)
Procedure: as §2, with “PDE3B” for “PDE3A”, “were” for “were is”, “1:6000).” for “1:5000).”

T2 sequence (Q13370 whole entry): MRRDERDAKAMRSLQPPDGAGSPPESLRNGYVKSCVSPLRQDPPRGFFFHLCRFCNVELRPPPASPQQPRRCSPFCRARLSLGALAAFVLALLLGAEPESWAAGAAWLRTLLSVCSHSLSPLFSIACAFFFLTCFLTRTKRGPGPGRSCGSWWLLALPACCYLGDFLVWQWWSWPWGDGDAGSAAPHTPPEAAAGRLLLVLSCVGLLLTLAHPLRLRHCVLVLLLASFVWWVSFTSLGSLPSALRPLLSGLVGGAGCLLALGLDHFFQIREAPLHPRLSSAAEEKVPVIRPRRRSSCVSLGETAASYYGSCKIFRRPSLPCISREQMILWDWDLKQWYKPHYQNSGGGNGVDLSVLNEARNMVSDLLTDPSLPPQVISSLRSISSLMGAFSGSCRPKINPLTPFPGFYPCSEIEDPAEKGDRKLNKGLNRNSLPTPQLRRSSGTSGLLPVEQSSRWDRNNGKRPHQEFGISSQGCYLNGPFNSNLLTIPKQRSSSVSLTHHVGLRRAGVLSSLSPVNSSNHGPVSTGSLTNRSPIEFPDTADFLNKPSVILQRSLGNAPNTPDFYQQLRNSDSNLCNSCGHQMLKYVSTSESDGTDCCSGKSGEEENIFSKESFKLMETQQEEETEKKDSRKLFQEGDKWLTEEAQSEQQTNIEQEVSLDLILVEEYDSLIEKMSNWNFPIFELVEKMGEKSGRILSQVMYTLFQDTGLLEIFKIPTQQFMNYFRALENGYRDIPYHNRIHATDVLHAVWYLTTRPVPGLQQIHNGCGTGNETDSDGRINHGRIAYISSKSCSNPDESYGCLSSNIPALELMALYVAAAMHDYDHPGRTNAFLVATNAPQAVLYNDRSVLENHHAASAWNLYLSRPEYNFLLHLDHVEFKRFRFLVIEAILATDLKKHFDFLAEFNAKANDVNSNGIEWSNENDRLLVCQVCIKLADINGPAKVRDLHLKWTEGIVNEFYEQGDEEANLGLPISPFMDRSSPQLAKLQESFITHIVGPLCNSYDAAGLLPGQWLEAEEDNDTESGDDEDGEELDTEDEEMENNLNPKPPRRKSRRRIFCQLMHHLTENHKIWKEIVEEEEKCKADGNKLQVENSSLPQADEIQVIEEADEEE
T1 sequence (Q14432 whole entry): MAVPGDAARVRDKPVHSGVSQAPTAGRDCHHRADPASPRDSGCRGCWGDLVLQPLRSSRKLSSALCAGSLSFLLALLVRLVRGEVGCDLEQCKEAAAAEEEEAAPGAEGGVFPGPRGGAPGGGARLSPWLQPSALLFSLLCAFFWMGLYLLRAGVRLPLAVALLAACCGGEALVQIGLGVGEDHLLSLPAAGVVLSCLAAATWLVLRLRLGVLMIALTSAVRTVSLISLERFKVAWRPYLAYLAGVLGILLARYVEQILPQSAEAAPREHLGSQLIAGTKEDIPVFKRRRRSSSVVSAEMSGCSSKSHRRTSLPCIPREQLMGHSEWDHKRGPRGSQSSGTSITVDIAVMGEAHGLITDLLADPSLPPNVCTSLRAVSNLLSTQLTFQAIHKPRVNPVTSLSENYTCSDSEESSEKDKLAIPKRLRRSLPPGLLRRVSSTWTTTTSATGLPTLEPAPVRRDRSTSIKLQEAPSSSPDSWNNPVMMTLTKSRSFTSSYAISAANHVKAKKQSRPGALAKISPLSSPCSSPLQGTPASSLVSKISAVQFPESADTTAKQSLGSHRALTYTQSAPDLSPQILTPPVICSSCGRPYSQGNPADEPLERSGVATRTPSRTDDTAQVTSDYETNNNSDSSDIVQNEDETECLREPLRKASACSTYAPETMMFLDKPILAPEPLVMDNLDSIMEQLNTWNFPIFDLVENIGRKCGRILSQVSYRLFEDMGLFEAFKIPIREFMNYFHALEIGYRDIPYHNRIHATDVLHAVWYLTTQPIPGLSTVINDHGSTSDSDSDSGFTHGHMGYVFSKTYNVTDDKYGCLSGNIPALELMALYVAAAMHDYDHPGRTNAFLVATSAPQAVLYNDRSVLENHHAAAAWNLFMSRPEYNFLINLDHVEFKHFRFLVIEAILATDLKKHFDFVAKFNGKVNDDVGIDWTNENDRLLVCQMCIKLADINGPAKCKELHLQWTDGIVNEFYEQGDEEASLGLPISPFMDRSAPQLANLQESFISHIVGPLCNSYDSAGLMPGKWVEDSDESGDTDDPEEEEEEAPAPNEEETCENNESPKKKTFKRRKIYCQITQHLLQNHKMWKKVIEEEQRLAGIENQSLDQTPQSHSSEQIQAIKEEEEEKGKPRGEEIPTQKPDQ

Compound	IC50 [1] [nM]	IC50 (SK-MEL-3 (melanoma)) [nM]	IC50 (human full length PDE3A) [nM]	IC50 (human full length PDE3B) [nM]
Cc1cc(C2=NNC(=O)CC2)ccc1-c1cccc(C(N)=O)c1 [Example 114, 2′-methyl-4′-(6-oxo-1,4,5,6-tetrahydropyridazin-3-yl)[1,1′-biphenyl]-3-carboxamide]	46.3	> 100	36	53
Cc1cc(C2=NNC(=O)CC2)ccc1-c1ccc(F)cc1F [Example 106, 6-(2′,4′-difluoro-2-methyl[1,1′-biphenyl]-4-yl)-4,5-dihydropyridazin-3(2H)-one]	4.79	21.4	110	100
Cc1cc(C2=NNC(=O)CC2)ccc1Cl [Example 11, 6-(4-Chloro-3-methylphenyl)-4,5-dihydropyridazin-3(2H)-one]	41.4	70.3	660	710
O=C1CCC(c2ccc(-c3ccoc3)c(F)c2)=NN1 [Example 45, 6-[3-fluoro-4-(furan-3-yl)phenyl]-4,5-dihydropyridazin-3(2H)-one]	10.4	13.7	370	310
Cc1ccc(-c2ccc(C3=NNC(=O)CC3)cc2F)c(F)c1 [Example 37, 6-(2,2′-difluoro-4′-methyl[1,1′-biphenyl]-4-yl)-4,5-dihydropyridazin-3(2H)-one]	4	7.31	130	100
COc1ccc(-c2ccc(C3=NNC(=O)CC3)cc2F)cn1 [Example 82, 6-[3-fluoro-4-(6-methoxypyridin-3-yl)phenyl]-4,5-dihydropyridazin-3(2H)-one]	14	23.6	83	85
Cc1cc(C2=NNC(=O)CC2)ccc1-c1cc(F)c(F)cc1F [Example 95, 6-(2′,4′,5′-trifluoro-2-methyl[1,1′-biphenyl]-4-yl)-4,5-dihydropyridazin-3(2H)-one]	9.32	60.7	180	200
O=C1CCC(c2ccc(-c3ccncc3)c(F)c2)=NN1 [Example 30, 6-[3-fluoro-4-(pyridin-4-yl)phenyl]-4,5-dihydropyridazin-3(2H)-one]	9.66	14.2	33	31
Cc1cnccc1-c1ccc(C2=NNC(=O)CC2)cc1F [Example 73, 6-[3-fluoro-4-(3-methylpyridin-4-yl)phenyl]-4,5-dihydropyridazin-3(2H)-one]	9.52	15.4	52	39
Nc1cc(-c2ccc(C3=NNC(=O)CC3)cc2F)ccn1 [Example 28, 6-[4-(2-aminopyridin-4-yl)-3-fluorophenyl]-4,5-dihydropyridazin-3(2H)-one]	60.2	> 100	100	89
Cc1ncc(-c2ccc(C3=NNC(=O)CC3)cc2F)cn1 [Example 31, 6-[3-fluoro-4-(2-methylpyrimidin-5-yl)phenyl]-4,5-dihydropyridazin-3(2H)-one]	34.4	47.3	160	93
O=C1CCC(c2ccc(N3CC4CC(C3)C4(F)F)c(C(F)(F)F)c2)=NN1 [Example 21, 6-[4-(6,6-Difluoro-3-azabicyclo[3.1.1]hept-3-yl)-3-(trifluoromethyl)phenyl]-4,5-dihydropyridazin-3(2H)-one]	2.87	5.82	82	50
O=C1CCC(c2ccc(-c3ccc(F)c(F)c3F)c(F)c2)=NN1 [Example 39, 6-(2,2′,3′,4′-tetrafluoro[1,1′-biphenyl]-4-yl)-4,5-dihydropyridazin-3(2H)-one]	5.25	8.4	82	80
Cc1cc(C2=NNC(=O)CC2)ccc1-c1cccc(O)c1 [Example 101, 6-(3′-hydroxy-2-methyl[1,1′-biphenyl]-4-yl)-4,5-dihydropyridazin-3(2H)-one]	14.6	36.3	67	67
Cc1cc(C2=NNC(=O)CC2)ccc1-c1cc(F)cc(F)c1 [Example 105, 6-(3′,5′-difluoro-2-methyl[1,1′-biphenyl]-4-yl)-4,5-dihydropyridazin-3(2H)-one]	27.6	> 100	200	200
O=C1CCC(c2ccc(-c3ccncc3Cl)c(F)c2)=NN1 [Example 69, 6-[4-(3-chloropyridin-4-yl)-3-fluorophenyl]-4,5-dihydropyridazin-3(2H)-one]	18.3	38.6	140	95
O=C1CCC(c2ccc(-c3ccccc3OC(F)(F)F)c(F)c2)=NN1 [Example 44, 6-[2-fluoro-2′-(trifluoromethoxy)[1,1′-biphenyl]-4-yl]-4,5-dihydropyridazin-3(2H)-one]	17.9	34.5	180	95
Cc1cc(C2=NNC(=O)CC2)ccc1-c1ccc(C#N)cc1 [Example 100, 2′-methyl-4′-(6-oxo-1,4,5,6-tetrahydropyridazin-3-yl)[1,1′-biphenyl]-4-carbonitrile]	22.5	> 100	58	59
Cc1ccc(-c2ccc(C3=NNC(=O)CC3)cc2F)cn1 [Example 34, 6-[3-fluoro-4-(6-methylpyridin-3-yl)phenyl]-4,5-dihydropyridazin-3(2H)-one]	7.23	9.88	57	50
COc1ccccc1-c1ccc(C2=NNC(=O)CC2)cc1C [Example 111, 6-(2′-methoxy-2-methyl[1,1′-biphenyl]-4-yl)-4,5-dihydropyridazin-3(2H)-one]	39.6	> 100	42	32
Cc1cc(C2=NNC(=O)CC2)ccc1-c1cnc(N)nc1 [Example 91, 6-[4-(2-aminopyrimidin-5-yl)-3-methylphenyl]-4,5-dihydropyridazin-3(2H)-one]	51.9	> 100	57	73
N#Cc1cccc(-c2ccc(C3=NNC(=O)CC3)cc2F)c1 [Example 47, 2′-fluoro-4′-(6-oxo-1,4,5,6-tetrahydropyridazin-3-yl)[1,1′-biphenyl]-3-carbonitrile]	13.7	19.3	95	96
Cc1ccc(F)c(-c2ccc(C3=NNC(=O)CC3)cc2F)c1 [Example 68, 6-(2,2′-difluoro-5′-methyl[1,1′-biphenyl]-4-yl)-4,5-dihydropyridazin-3(2H)-one]	36.3	71.2	160	100
